The subject of assay [1] is AptT4 (SH-5′-AptT4) (DNA, aptamer) CGCCGTTGGTGTTCGGTCAGGCTTCCGTGGCAACGGGGCAAAATGGTAATCGCGGGGAACC
The experiment in a line: SnS2 field-effect transistor, selectivity test. The settings on record: 137 mM NaCl, 2.7 mM KCl, 0.5 mM MgCl2; 1× PBS, pH 7.4; tested at 10 nM against 1 pM T4; low response.

Assay [2] has the same test system. Kind of assay: SnS2 field-effect transistor, Langmuir isotherm fit. Particulars: 137 mM NaCl, 2.7 mM KCl, 0.5 mM MgCl2; 1× PBS (10 mM Na2HPO4, 2 mM KH2PO4), pH 7.4; aptamer immobilised with PEG.

SMILES strings stand for the structures.

For `CC(C)(c1ccc(O)cc1)c1ccc(O)cc1`, the binding result in assay [1] is listed as “no”.
With `N[C@@H](Cc1cc(I)c(Oc2cc(I)c(O)c(I)c2)c(I)c1)C(=O)O`, the K d in assay [2] amounted to 0.0144 ± 0.0008 nM.
In the case of `N[C@@H](Cc1cc(I)c(Oc2ccc(O)c(I)c2)c(I)c1)C(=O)O`, the binding result in assay [1] is “no”.
